Data from PMC3914206.

Legend:
[1] = molecular target: T1, panel of 442 kinases (Homo sapiens, UniProt Q96RR4); type: binding; conditions: Compound Concentration 10 µM
T1 construct: purchased KINOMEscan
From the text: (§1) We assessed the selectivity of members of this scaffold using the KINOMEscan methodology across a near comprehensive panel of 442 kinases [[18,27]].

[2] = molecular target: T2, panel of 442 kinases (Homo sapiens, UniProt P29320); type: binding; conditions: Compound Concentration 10 µM
T2 construct: purchased KINOMEscan
T2 sequence (P29320 21-983): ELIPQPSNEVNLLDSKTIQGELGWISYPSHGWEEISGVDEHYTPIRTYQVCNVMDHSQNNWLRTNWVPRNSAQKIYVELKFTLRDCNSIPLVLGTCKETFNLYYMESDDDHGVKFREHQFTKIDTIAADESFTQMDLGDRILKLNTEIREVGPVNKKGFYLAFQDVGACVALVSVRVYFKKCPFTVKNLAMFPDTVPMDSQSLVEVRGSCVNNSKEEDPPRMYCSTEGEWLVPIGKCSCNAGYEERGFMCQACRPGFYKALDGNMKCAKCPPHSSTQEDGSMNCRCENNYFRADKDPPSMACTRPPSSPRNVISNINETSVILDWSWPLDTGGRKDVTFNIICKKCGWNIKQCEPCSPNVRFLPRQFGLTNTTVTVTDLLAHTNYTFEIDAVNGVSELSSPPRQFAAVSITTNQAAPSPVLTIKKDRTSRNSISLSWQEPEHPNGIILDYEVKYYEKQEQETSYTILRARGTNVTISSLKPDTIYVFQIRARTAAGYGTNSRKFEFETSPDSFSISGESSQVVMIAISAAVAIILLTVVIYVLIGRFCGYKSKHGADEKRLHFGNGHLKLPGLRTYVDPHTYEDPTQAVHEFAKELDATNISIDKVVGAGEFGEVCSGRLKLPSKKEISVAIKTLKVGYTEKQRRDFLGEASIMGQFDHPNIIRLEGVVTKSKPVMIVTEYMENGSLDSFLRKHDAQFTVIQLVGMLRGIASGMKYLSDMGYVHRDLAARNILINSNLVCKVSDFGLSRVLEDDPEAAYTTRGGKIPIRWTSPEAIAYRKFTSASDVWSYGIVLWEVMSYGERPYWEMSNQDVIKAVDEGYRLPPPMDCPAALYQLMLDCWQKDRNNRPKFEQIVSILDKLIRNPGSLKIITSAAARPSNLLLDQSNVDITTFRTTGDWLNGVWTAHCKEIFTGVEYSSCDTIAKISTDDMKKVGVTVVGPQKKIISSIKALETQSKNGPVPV
From the text: as §1

T1 sequence (Q96RR4 whole entry): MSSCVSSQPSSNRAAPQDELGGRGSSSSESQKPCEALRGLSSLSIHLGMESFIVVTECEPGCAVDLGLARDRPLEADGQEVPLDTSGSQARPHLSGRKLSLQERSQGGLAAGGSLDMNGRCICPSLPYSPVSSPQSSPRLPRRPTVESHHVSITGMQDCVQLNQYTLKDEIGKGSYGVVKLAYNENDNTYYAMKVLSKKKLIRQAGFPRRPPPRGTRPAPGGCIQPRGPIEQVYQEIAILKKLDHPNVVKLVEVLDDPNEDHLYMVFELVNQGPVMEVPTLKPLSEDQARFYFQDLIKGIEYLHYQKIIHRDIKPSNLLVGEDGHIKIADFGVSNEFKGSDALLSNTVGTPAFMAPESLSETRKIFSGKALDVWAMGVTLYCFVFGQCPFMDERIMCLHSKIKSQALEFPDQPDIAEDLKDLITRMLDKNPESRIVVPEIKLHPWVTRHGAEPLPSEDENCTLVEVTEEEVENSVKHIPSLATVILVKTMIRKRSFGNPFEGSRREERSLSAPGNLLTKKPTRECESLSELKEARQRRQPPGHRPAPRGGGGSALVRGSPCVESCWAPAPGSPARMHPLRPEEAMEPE

SMILES	KINOMEscan: CAMKK2 [1]	KINOMEscan: EPHA3 [2]
CCOc1cc(C(=O)N2CCC(N3CCN(C)CC3)CC2)ccc1Nc1ncc2c(n1)N(C1CCCC1)c1ccccc1C(=O)N2C [Compound 26]	100	95
COc1cc(C(=O)N2CCC(N3CCN(C)CC3)CC2)ccc1Nc1ncc2c(n1)N(C1CCCC1)c1ccccc1C(=O)N2C [Compound 25, 11-cyclopentyl-2-((2-methoxy-4-(4-(4-methylpiperazin-1-yl)piperidine-1-carbonyl)phenyl)amino)-5-methyl-5H-benzo[e]pyrimido[5,4-b][1,4]diazepin-6(11H)-one]	78	100
COc1cc(C(=O)N2CCC(N3CCN(C)CC3)CC2)ccc1Nc1ncc2c(n1)N1CCc3cccc(c31)C(=O)N2C [Compound 24]	52	91
COc1cc(C(=O)N2CCC(N3CCN(C)CC3)CC2)ccc1Nc1ncc2c(n1)N(C)c1ccccc1C(=O)N2C [15 (LRRK2-IN-1)]	31	100
